According to ChEMBL document CHEMBL1909046, “DrugMatrix in vitro pharmacology data”:

What was measured:
[1] = molecular target: 5-hydroxytryptamine receptor 4 (Cavia porcellus, UniProt O70528); format: cell membranes, Dunkin-Hartley, Striatum, Membrane; note: in other assays of this panel Not Active means under 50% inhibition at 10 µM
Endothelin-1 receptor = molecular target: T1, Endothelin-1 receptor (Homo sapiens, UniProt P25101); format: cell membranes, Membrane; conditions: cho-k1; note: in other assays of this panel Not Active means under 50% inhibition at 10 µM
T1 sequence (P25101 whole entry): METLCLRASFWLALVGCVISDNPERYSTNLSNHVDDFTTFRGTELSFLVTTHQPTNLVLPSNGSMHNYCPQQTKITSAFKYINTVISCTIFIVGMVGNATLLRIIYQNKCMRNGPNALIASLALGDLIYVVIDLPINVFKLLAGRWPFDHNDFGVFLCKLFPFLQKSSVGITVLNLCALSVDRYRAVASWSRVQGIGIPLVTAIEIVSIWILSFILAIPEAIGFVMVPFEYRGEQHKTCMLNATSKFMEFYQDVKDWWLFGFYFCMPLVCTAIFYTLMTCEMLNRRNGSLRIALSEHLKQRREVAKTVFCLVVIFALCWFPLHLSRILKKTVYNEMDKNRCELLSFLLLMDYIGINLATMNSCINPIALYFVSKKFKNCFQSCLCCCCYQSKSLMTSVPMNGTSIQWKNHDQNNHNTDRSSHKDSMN

[2] = molecular target: T2, Muscarinic acetylcholine receptor M2 (Homo sapiens, UniProt P08172); format: cell membranes, CHO-K1, Membrane; note: in other assays of this panel Not Active means under 50% inhibition at 10 µM
T2 sequence (P08172 whole entry): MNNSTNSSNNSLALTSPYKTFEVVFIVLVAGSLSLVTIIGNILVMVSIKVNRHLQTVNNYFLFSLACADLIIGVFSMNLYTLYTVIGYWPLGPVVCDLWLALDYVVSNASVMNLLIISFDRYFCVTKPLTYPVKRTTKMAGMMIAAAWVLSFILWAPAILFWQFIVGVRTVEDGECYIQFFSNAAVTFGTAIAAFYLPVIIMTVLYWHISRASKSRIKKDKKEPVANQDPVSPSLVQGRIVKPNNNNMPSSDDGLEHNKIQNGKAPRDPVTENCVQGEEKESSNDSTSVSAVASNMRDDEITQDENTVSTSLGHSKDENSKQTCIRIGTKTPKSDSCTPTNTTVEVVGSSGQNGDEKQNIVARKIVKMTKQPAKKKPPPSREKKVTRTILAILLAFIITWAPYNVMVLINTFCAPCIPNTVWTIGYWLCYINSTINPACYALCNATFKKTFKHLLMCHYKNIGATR

[3] = molecular target: Matrix metalloproteinase-9 (Homo sapiens, UniProt P14780); format: cell-based;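 note: inhibition of isolated MMP-9 enzyme activity toward a synthetic peptide substrate, from the DrugMatrix protease screening panel; in other assays of this panel Not Active means under 50% inhibition at 10 µM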
Sequence of Matrix metalloproteinase-9 (P14780 whole entry): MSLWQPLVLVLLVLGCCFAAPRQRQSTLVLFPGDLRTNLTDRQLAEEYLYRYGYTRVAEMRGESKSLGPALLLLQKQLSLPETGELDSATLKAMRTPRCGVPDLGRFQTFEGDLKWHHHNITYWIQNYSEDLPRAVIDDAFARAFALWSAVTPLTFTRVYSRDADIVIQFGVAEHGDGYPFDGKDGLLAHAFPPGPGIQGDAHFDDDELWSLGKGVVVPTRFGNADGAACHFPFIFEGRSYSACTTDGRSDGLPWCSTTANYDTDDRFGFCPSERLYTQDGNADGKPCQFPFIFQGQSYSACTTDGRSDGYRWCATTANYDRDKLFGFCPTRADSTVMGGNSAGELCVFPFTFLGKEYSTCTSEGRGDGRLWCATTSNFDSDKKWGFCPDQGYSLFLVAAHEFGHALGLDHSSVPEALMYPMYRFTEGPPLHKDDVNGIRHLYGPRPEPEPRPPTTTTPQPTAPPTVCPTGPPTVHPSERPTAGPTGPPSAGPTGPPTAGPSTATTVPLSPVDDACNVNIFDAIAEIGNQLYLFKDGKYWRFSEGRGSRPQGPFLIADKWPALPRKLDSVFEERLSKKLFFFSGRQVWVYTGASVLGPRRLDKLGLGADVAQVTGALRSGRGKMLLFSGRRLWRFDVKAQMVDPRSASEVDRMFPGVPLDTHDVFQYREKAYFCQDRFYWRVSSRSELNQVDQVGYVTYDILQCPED

[4] = molecular target: Mitogen-activated protein kinase 1 (Homo sapiens, UniProt P28482); assay: DRUGMATRIX: Protein Serine/Threonine Kinase, ERK2 enzyme inhibition (substrate: Myelin Basic Protein); parameters: species or system Escherichia coli; conditions: Not Active = under 50% inhibition at 10 µM
Sequence of Mitogen-activated protein kinase 1 (P28482 whole entry): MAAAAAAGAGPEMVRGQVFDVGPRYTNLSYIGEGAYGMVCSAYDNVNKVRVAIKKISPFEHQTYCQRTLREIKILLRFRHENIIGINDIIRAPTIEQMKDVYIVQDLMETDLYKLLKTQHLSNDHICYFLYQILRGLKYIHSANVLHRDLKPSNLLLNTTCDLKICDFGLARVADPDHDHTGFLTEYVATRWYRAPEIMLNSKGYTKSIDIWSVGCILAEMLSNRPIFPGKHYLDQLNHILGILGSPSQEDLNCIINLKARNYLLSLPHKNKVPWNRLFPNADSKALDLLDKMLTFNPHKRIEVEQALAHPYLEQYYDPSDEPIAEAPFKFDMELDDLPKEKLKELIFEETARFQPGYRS

[5] = molecular target: 5-hydroxytryptamine receptor 1B (Rattus norvegicus, UniProt P28564); format: cell membranes, Wistar, Cerebral cortex, Membrane; note: in other assays of this panel Not Active means under 50% inhibition at 10 µM
Sequence of 5-hydroxytryptamine receptor 1B (P28564 whole entry): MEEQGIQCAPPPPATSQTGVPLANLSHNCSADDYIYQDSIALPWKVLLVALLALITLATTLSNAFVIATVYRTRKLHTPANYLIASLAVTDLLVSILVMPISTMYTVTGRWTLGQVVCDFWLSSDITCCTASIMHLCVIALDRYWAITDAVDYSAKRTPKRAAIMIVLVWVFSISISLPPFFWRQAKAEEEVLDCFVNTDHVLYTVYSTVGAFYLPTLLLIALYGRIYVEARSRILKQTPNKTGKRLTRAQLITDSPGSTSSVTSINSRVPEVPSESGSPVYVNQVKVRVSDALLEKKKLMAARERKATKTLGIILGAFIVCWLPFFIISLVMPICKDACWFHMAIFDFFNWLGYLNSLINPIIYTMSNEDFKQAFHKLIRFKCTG

Sequence of 5-hydroxytryptamine receptor 4 (O70528 whole entry): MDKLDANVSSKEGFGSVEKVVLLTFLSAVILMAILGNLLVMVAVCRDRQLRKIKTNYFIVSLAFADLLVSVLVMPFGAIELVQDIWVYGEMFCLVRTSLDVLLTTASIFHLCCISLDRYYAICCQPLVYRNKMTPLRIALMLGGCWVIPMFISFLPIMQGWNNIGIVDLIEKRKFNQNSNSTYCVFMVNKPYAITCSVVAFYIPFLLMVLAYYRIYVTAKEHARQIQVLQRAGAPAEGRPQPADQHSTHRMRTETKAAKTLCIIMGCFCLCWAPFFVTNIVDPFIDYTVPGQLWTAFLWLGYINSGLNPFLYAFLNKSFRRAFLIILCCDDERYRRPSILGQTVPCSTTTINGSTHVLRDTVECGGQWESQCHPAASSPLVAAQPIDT

Molecule	IC50 [1]	IC50 (Endothelin-1 receptor)	IC50 ([2]; cho-k1)	IC50 [3]	IC50 [4]	IC50 [5]	IC50 ([2]; read-out: IC50) [µM]	Ki ([2]; read-out: Ki) [µM]	IC50 ([5]; read-out: IC50) [µM]	Ki ([5]; read-out: Ki) [µM]	IC50 ([1]; read-out: IC50) [µM]	Ki ([1]; read-out: Ki) [µM]	Ki [1]	Ki (Endothelin-1 receptor)	Ki ([2]; cho-k1)	Ki [3]	Ki [4]	Ki [5]
CC(=N)S [THIOACETAMIDE]	Not Active	Not Active	Not Active	Not Active	Not Active	Not Active	–	–	–	–	–	–	–	–	–	–	–	–
O=C1C[C@@H]2OCC=C3CN4CC[C@]56c7ccccc7N1[C@H]5[C@H]2[C@H]3C[C@H]46 [STRYCHNINE]	Not Active	Not Active	Not Active	Not Active	Not Active	Not Active	–	–	–	–	–	–	–	–	–	–	–	–
Nc1ccc(S(=O)(=O)NC(=O)c2ccccc2)cc1 [SULFABENZAMIDE]	Not Active	Not Active	Not Active	Not Active	Not Active	Not Active	–	–	–	–	–	–	–	–	–	–	–	–
CC(=O)OCC(COC(C)=O)OC(C)=O [TRIACETIN]	Not Active	Not Active	Not Active	Not Active	Not Active	Not Active	–	–	–	–	–	–	–	–	–	–	–	–
CCCCC(=O)N(Cc1ccc(-c2ccccc2-c2nnn[nH]2)cc1)[C@H](C(=O)O)C(C)C	Not Active	Not Active	Not Active	Not Active	Not Active	Not Active	–	–	–	–	–	–	–	–	–	–	–	–
OCCOCCN1CCN(C2=Nc3ccccc3Sc3ccccc32)CC1 [QUETIAPINE]	Not Active	Not Active	–	Not Active	Not Active	Not Active	–	–	–	–	–	–	–	–	–	–	–	–
CC1CCC(NC(=O)N(CCCl)N=O)CC1 (stereo not drawn) [SEMUSTINE]	Not Active	Not Active	Not Active	Not Active	Not Active	Not Active	–	–	–	–	–	–	–	–	–	–	–	–
Oc1ccc2c3c1O[C@H]1[C@@H](O)CC[C@@]4(O)[C@@H](C2)N(CC2CCC2)CC[C@]314 [NALBUPHINE]	Not Active	Not Active	Not Active	Not Active	Not Active	Not Active	–	–	–	–	–	–	–	–	–	–	–	–
Clc1ccc(COC(Cn2ccnc2)c2ccc(Cl)cc2Cl)c(Cl)c1 (stereo not drawn) [MICONAZOLE]	Not Active	Not Active	–	Not Active	Not Active	–	4.34	1.54	20.6	9.36	–	–	–	–	–	–	–	–
O=C(O)CCCCC1CCSS1 (stereo not drawn) [LIPOIC ACID, ALPHA]	Not Active	Not Active	Not Active	Not Active	Not Active	Not Active	–	–	–	–	–	–	–	–	–	–	–	–
CCCCCCCCNC(C)C(O)c1ccc(SC(C)C)cc1 (stereo not drawn) [SULOCTIDIL]	Not Active	Not Active	Not Active	Not Active	Not Active	Not Active	–	–	–	–	–	–	–	–	–	–	–	–
COC(=O)[C@H]1[C@H]2C[C@@H]3c4[nH]c5cc(OC)ccc5c4CCN3C[C@H]2C[C@@H](OC(=O)c2cc(OC)c(OC)c(OC)c2)[C@@H]1OC [RESERPINE]	Not Active	Not Active	Not Active	Not Active	Not Active	Not Active	–	–	–	–	–	–	–	–	–	–	–	–
O=c1[nH]c(=O)n(C2CCCO2)cc1F (stereo not drawn) [TEGAFUR]	Not Active	Not Active	Not Active	Not Active	Not Active	Not Active	–	–	–	–	–	–	–	–	–	–	–	–
CC(C)NC[C@H](O)COc1cccc2ccccc12 [LEVOPROPRANOLOL]	Not Active	Not Active	Not Active	Not Active	Not Active	Not Active	–	–	–	–	–	–	–	–	–	–	–	–
CN1[C@@H]2CC[C@H]1C[C@@H](OC(c1ccccc1)c1ccccc1)C2 [BENZTROPINE]	Not Active	Not Active	–	Not Active	Not Active	Not Active	–	–	–	–	–	–	–	–	–	–	–	–
Cc1ccc(C(=O)c2ccc(CC(=O)O)n2C)cc1 [TOLMETIN]	Not Active	Not Active	Not Active	Not Active	Not Active	Not Active	–	–	–	–	–	–	–	–	–	–	–	–
C[S+]([O-])c1ccc(-c2nc(-c3ccncc3)c(-c3ccc(F)cc3)[nH]2)cc1 (stereo not drawn) [SB-203580]	–	Not Active	Not Active	Not Active	–	Not Active	–	–	–	–	10.6	1.76	–	–	–	–	–	–
CN1CCN(C2=Nc3cc(Cl)ccc3Nc3ccccc32)CC1 [CLOZAPINE]	Not Active	Not Active	–	Not Active	Not Active	–	–	–	–	–	–	–	–	–	–	–	–	–
C[C@]12C=CC(=O)C=C1CC[C@@H]1[C@@H]2C(=O)C[C@@]2(C)[C@H]1CC[C@]2(O)C(=O)CO [PREDNISONE]	Not Active	Not Active	Not Active	Not Active	Not Active	Not Active	–	–	–	–	–	–	–	–	–	–	–	–
CC(C)NC[C@@H](O)COc1cccc2ccccc12 [DEXPROPRANOLOL]	Not Active	Not Active	Not Active	Not Active	Not Active	Not Active	–	–	–	–	–	–	–	–	–	–	–	–
CN1CCN(CCCN2c3ccccc3Sc3ccc(C(F)(F)F)cc32)CC1 [TRIFLUOPERAZINE]	Not Active	Not Active	Not Active	Not Active	Not Active	Not Active	–	–	–	–	–	–	–	–	–	–	–	–
O=C(O)COc1ccc(C(=O)c2cccs2)c(Cl)c1Cl	Not Active	Not Active	Not Active	Not Active	Not Active	Not Active	–	–	–	–	–	–	–	–	–	–	–	–
C[N+](C)(C)CCOC(=O)CCC(=O)OCC[N+](C)(C)C.[Cl-].[Cl-] [SUCCINYLCHOLINE CHLORIDE]	Not Active	Not Active	Not Active	Not Active	Not Active	Not Active	–	–	–	–	–	–	–	–	–	–	–	–
TRANSPLATIN	Not Active	Not Active	Not Active	Not Active	Not Active	Not Active	–	–	–	–	–	–	Not Active	Not Active	Not Active	Not Active	Not Active	Not Active
C[C@@](Cc1ccc(O)c(O)c1)(NN)C(=O)O.O [CARBIDOPA]	Not Active	Not Active	Not Active	Not Active	Not Active	Not Active	–	–	–	–	–	–	–	–	–	–	–	–
ZIRCONIUM(IV) CHLORIDE	Not Active	Not Active	Not Active	Not Active	Not Active	Not Active	–	–	–	–	–	–	Not Active	Not Active	Not Active	Not Active	Not Active	Not Active
CN(C)C(=O)C(CCN1CCC(O)(c2ccc(Cl)cc2)CC1)(c1ccccc1)c1ccccc1 [LOPERAMIDE]	Not Active	Not Active	Not Active	Not Active	Not Active	Not Active	–	–	–	–	–	–	–	–	–	–	–	–
O=C(O)c1ccccc1O [SALICYLIC ACID]	Not Active	Not Active	Not Active	Not Active	Not Active	Not Active	–	–	–	–	–	–	–	–	–	–	–	–
